Assay results as given in patent US11608323B2 (SYNGENTA LIMITED, priority 2013, dated 2023).

Legend:
Format in all cases: in vivo
[1] = test system: ABUTH; assay: Post-emergence herbicidal activity, glasshouse pot test; details: Abutilon theophrasti; application post-emergence; rate 1000 g/Ha; evaluated after 13 days
Procedure: (§1) Seeds of a variety of test species were sown in standard soil in pots. After 8 days cultivation (post-emergence) under controlled conditions in a glasshouse (at 24/16° C., day/night; 14 hours light; 65% humidity), the plants were sprayed with an aqueous spray solution derived from the formulation of the technical active ingredient in acetone/water (50:50) solution containing 0.5% Tween 20 (polyoxyethelyene sorbitan monolaurate, CAS RN 9005-64-5). The test plants were then grown in a glasshouse under controlled conditions (at 24/16° C., day/night; 14 hours light; 65% humidity) and watered twice daily. After 13 days, the test was evaluated (5=total damage to plant; 0=no damage to plant).

[2] = test system: ECHCG; assay: as above; details: Echinochloa crus-galli; application post-emergence; rate 1000 g/Ha; evaluated after 13 days
Procedure: as §1

[3] = test system: ZEAMX; assay: as above; details: Zea mays; application post-emergence; rate 1000 g/Ha; evaluated after 13 days
Procedure: as §1

[4] = test system: SETFA; assay: as above; details: Setaria faberi; application post-emergence; rate 1000 g/Ha; evaluated after 13 days
Procedure: as §1

[5] = test system: AMARE; assay: as above; details: Amaranthus retroflexus; application post-emergence; rate 1000 g/Ha; evaluated after 13 days
Procedure: as §1

[6] = test system: ABUTH; assay: Pre-emergence herbicidal activity, glasshouse pot test; details: rate 1000 g/Ha, evaluated after 13 days, scale 0-5
Procedure: as §1, with “After” for “After 8 days”, “for one day (pre-emergence)” for “(post-emergence)”

[7] = test system: ECHCG; assay: as above; details: rate 1000 g/Ha, evaluated after 13 days, scale 0-5
Procedure: as §1, with “After” for “After 8 days”, “for one day (pre-emergence)” for “(post-emergence)”

[8] = test system: ZEAMX; assay: as above; details: rate 1000 g/Ha, evaluated after 13 days, scale 0-5
Procedure: as §1, with “After” for “After 8 days”, “for one day (pre-emergence)” for “(post-emergence)”

[9] = test system: SETFA; assay: as above; details: rate 1000 g/Ha, evaluated after 13 days, scale 0-5
Procedure: as §1, with “After” for “After 8 days”, “for one day (pre-emergence)” for “(post-emergence)”

[10] = test system: AMARE; assay: as above; details: rate 1000 g/Ha, evaluated after 13 days, scale 0-5
Procedure: as §1, with “After” for “After 8 days”, “for one day (pre-emergence)” for “(post-emergence)”

| SMILES | Post-emergence herbicidal activity ABUTH (damage score 0-5) [1] | Post-emergence herbicidal activity ECHCG (damage score 0-5) [2] | Post-emergence herbicidal activity ZEAMX (damage score 0-5) [3] | Post-emergence herbicidal activity SETFA (damage score 0-5) [4] | Post-emergence herbicidal activity AMARE (damage score 0-5) [5] | ABUTH damage score, application pre-emergence [6] | ECHCG damage score, application pre-emergence [7] | ZEAMX damage score, application pre-emergence [8] | SETFA damage score, application pre-emergence [9] | AMARE damage score, application pre-emergence [10] |
| --- | --- | --- | --- | --- | --- | --- | --- | --- | --- | --- |
| C[C@@H]1C(O)N(c2cc(C(F)(F)F)ccn2)C(=O)N1C (mixture of isomers) [Compound A38, (4R,5R)-4-hydroxy-1,5-dimethyl-3-[4-(trifluoromethyl)-2-pyridyl]imidazolidin-2-one and (4S,5R)-4-hydroxy-1,5-dimethyl-3-[4-(trifluoromethyl)-2-pyridyl]imidazolidin-2-one] | 5 | 5 | 4 | 5 | 5 | 5 | 5 | 3 | 5 | 5 |
| CCO[C@@H]1C(O)N(c2cc(C(F)(F)F)ccn2)C(=O)N1C (single isomer, unassigned) [Compound A34] | 5 | 5 | 4 | 5 | 5 | 5 | 5 | 3 | 5 | 5 |
| CCO[C@H]1C(O)N(c2cc(C(F)(F)F)ccn2)C(=O)N1C (single isomer, unassigned) [Compound A35] | 0 | 3 | 1 | 3 | 5 | 4 | 4 | 2 | 4 | 5 |
| CC1C(O)N(c2cc(C(F)(F)C(F)(F)F)ccn2)C(=O)N1C (single isomer, unassigned) [Compound A72] | 5 | 5 | 2 | 5 | 5 | 5 | 5 | 2 | 5 | 5 |
| CON1C(=O)N(c2cc(C(C)(F)F)ccn2)C(O)C1C (single isomer, unassigned) [Compound A93] | 5 | 5 | 4 | 5 | 5 | 5 | 5 | 3 | 5 | 5 |
| O=C1N2COCC2C(O)N1c1cc(C(F)(F)F)ccn1 (single isomer, unassigned) [Compound A94] | 5 | 5 | 5 | 5 | 5 | 5 | 5 | 4 | 5 | 5 |
| C=CC1C(O)N(c2cc(C(F)(F)F)ccn2)C(=O)N1C (stereo not drawn) [Compound A31] | 5 | 5 | 4 | 5 | 5 | 5 | 5 | 2 | 5 | 5 |
| C=Cc1cnc(N2C(=O)N(C)C(C)C2O)cc1C(F)(F)F (stereo not drawn) [Compound A62] | 5 | 5 | 2 | 5 | 5 | 4 | 4 | 2 | 3 | 5 |
| CC1C(O)N(c2cc(C(F)(F)F)ccn2)C(=O)N1O (stereo not drawn) [Compound A64] | 4 | 5 | 1 | 4 | 5 | 2 | 4 | 2 | 3 | 5 |
| CC1C(O)N(c2cc(C(F)(F)F)c(C(=O)NC(C)(C)C)cn2)C(=O)N1C (stereo not drawn) [Compound A65] | 5 | 5 | 5 | 5 | 5 | 5 | 5 | 3 | 5 | 5 |
| CON1C(=O)N(c2ccc(C(=O)NC(C)(C)C)cn2)C(O)C1C (stereo not drawn) [Compound A66] | 5 | 5 | 5 | 5 | 5 | 5 | 5 | 2 | 4 | 5 |
| CC1C(O)N(c2ccc(C(=O)NC(C)(C)C)cn2)C(=O)N1C (stereo not drawn) [Compound A67] | 5 | 5 | 4 | 5 | 5 | 5 | 5 | 3 | 5 | 5 |
